Columns and labels:
[1] = Peroxidation of unilamellar PC liposomes induced by Bu^tOOH/Cytochrome C, oxygen consumption (oxygraph); conditions: for inhibition of oxygen consumption: 5 μM nitroxide added 80 s after onset, 2.4 mM unilamellar PC liposomes, PBS pH 7.4, 37° C., 6 minutes
Description: Oxidation was induced by injecting at point A, 25 μl of Bu^tOOH 7.3 M and injecting at point B 25 μl of cytochrome C (1 mg protein/ml). Point C refers to the addition of 5 μM of the following compounds (if not specified otherwise):
The compounds are indicated with the following abbreviations: MC4, the compound with formula (I) in which R=C4 alkyl residue; DC4, the compound with formula (I) in which R=(X) and (X) contains R1=C4 methylenic alkyl residue; MC8, the compound with formula (I) in which R=C8 alkyl residue; DC8, the compound with formula (I) in which R=(X) and (X) contains R1=C8 methylenic alkyl residue; TEMPO and TDN. With reference to FIG. 2, the percentage inhibition of the consumption of oxygen in PC unilamellar liposome (2.4 mM) in 5 mM phosphate buffer saline, 0.1 mM EDTA, pH 7.4 at 37° C. to which 5 μM nitroxide compounds was added are reported.
The Applicant has selected certain nitroxide radicals as antioxidant agents following experimental tests. The antioxidant properties were studied in the laboratory in different biological systems. The systems employed are biological systems which mimic in vivo ones. The biological systems used are subjected to oxidative damage. Oxidative damage was induced in various ways. The Applicant carried out an experimental test to evaluate the peroxidation of unilamellar PC liposomes induced by the use of the Bu^tOOH/Cytochrome C system. […]
After 80 seconds from the onset of peroxidation, the different nitroxide radicals at final concentration of 5 μM were added. […] The reaction was monitored for 6 minutes. For each nitroxide tested, the extent of inhibition of the consumption of oxygen was calculated. The value of inhibition was calculated in the following way: […]
Each individual recording is reported in FIG. 1, since the rate of oxygen consumption before the addition of the antioxidant compounds at point C is always constant. From these experiments, the percentage inhibition of oxygen consumption was calculated by subtraction as reported above.

[2] = Peroxidation of multilamellar PC liposomes with incorporated nitroxides, induced by Bu^tOOH/Cytochrome C, oxygen consumption; conditions: 22 μM nitroxide incorporated inside 0.77 mM multilamellar liposomes; pH 7.4, 37° C., 5 minutes
Description: The compounds are indicated with the abbreviations: MC4, DC4, TEMPO and TDN as defined for FIG. 2. With reference to FIG. 4, the percentage inhibition of the consumption of oxygen was obtained from measurements carried out on an oxygraph. The system studied consists of multilamellar PC liposomes which have nitroxides incorporated inside them ([…]) in 5 mM phosphate buffer saline, 0.1 mM EDTA, pH 7.4 at 37° C.
The Applicant carried out an experimental test to evaluate the peroxidation of multilamellar PC liposomes, induced through the Bu^tOOH/Cytochrome C system.
The liposomes employed in this experimental system contain inside them the antioxidant agents. […] The peroxidation of these liposomes was evaluated by monitoring the consumption of oxygen in a final volume of 1.8 ml and at a constant temperature of 37° C. in 5 mM of phosphate buffer saline, 0.1 mM EDTA, pH 7.4 as previously described.
The final concentration of the liposomes and of antioxidant agents, in the oxidation chamber, was 0.77 mM and 22 μM respectively. […] The consumption of oxygen was monitored for 5 minutes. For each of the nitroxides tested, the degree of suppression of oxygen consumption was calculated. […]

Row | Molecule | inhibition of oxygen consumption [1] | protective effects against lipid peroxidation ([1]; higher concentration than 5 μM, same experimental conditions) | inhibited peroxidation (percentage of inhibition of oxygen consumption) [2]
1 | CC1(C)CCCC(C)(C)N1[O] [TEMPO, 2,2,6,6-tetramethylpiperidine-1-oxyl] | no protective effects | no protective effects | no effect
2 | bis(2,2,6,6-tetramethylpiperidine-1-oxyl-4-yl)sebacate [TDN] | lower inhibition values with respect to DC4 | – | 45%

— patent US20030224026A1, “Dermatological or cosmetic composition which includes aromatic nitroxide compounds and their use” (priority 2002, published 2003)
